From US10231967B2, “Compounds and their use as BACE inhibitors” (ASTRAZENECA AB, priority 2010, dated 2019)

test system: sAPPβ release in SH-SY5Y cells; assay: sAPPβ release assay; assay type: cell-based; conditions: Homo sapiens, SH-SY5Y, 17 h, compounds incubated 17 h, MSD detection
Description: Thaw cells and seed at a conc. of around 10000 cells/well in DMEM/F-12 with Glutamax, 10% FCS and 1% non-essential amino acids to a 384-well tissue culture treated plate, 100 μL cell susp/well. […] The cell medium was removed, followed by addition of 30 μL compound diluted in DMEM/F-12 with Glutamax, 10% FCS, 1% non-essential amino acids and 1% PeSt to a final conc. of 1% DMSO. The compounds were incubated with the cells for 17 h (overnight) at 37° C., 5% CO2. Meso Scale Discovery (MSD) plates were used for the detection of sAPPβ release. MSD sAPPβ plates were blocked in 1% BSA in Tris wash buffer (40 μL/well) for 1 h on shake at r.t. and washed 1 time in Tris wash buffer (40 μL/well). 20 μL of medium was transferred to the pre-blocked and washed MSD sAPPβ microplates, and the cell plates were further used in an ATP assay to measure cytotoxicity. The MSD plates were incubated with shaking at r.t. for 2 h and the media discarded. 10 μL detection antibody was added (1 nM) per well followed by incubation with shaking at r.t. for 2 h and then discarded. 40 μL Read Buffer was added per well and the plates were read in a SECTOR Imager.

Row | SMILES | IC50
1 | COCc1cccc(-c2ccc3c(c2)C2(N=C(C)C(N)=N2)[C@]2(CC[C@H](OC)CC2)C3)c1 (stereo partly shown) [Example 80, (1r,4r)-4-Methoxy-6′-[3-(methoxymethyl)phenyl]-5″-methyl-3′H-dispiro[cyclohexane-1,2′-indene-1′,2″-imidazol]-4″-amine] | 13 nM
2 | COCc1cc(F)cc(-c2ccc3c(c2)C2(N=C(C)C(N)=N2)[C@]2(CC[C@H](OC)CC2)C3)c1 (stereo partly shown) [Example 81, (1r,4r)-6′-[3-Fluoro-5-(methoxymethyl)phenyl]-4-methoxy-5″-methyl-3′H-dispiro[cyclohexane-1,2′-indene-1′,2″-imidazol]-4″-amine] | 20 nM
3 | CO[C@H]1CC[C@]2(CC1)Cc1ccc(-c3cncc(COCC(F)(F)F)c3)cc1C21N=C(C)C(N)=N1 (stereo partly shown) [Example 82, (1r,4r)-4-Methoxy-5″-methyl-6′-{5-[(2,2,2-trifluoroethoxy)methyl]pyridin-3-yl}-3′H-dispiro[cyclohexane-1,2′-indene-1′,2″-imidazol]-4″-amine] | 36 nM
4 | CO[C@H]1CC[C@]2(CC1)Cc1ccc(-c3cncc(C(F)(F)F)c3)cc1[C@@]21N=C(C)C(N)=N1 [Example 84, (1r,1′R,4R)-4-Methoxy-5″-methyl-6′-[5-(trifluoromethyl)pyridin-3-yl]-3′H-dispiro[cyclohexane-1,2′-indene-1′,2″-imidazol]-4″-amine] | 0.99 nM
5 | CO[C@H]1CC[C@]2(CC1)Cc1ccc(-c3cc(C#N)cc(C(F)(F)F)c3)cc1[C@@]21N=C(C)C(N)=N1 [Example 85] | 0.8 nM
6 | COc1cc(-c2ccc3c(c2)[C@@]2(N=C(C)C(N)=N2)[C@]2(CC[C@H](OC)CC2)C3)cc(C#N)c1F [Example 87, 5-[(1r,1′R,4R)-4″-Amino-4-methoxy-5″-methyl-3′H-dispiro[cyclohexane-1,2′-indene-1′,2″-imidazol]-6′-yl]-2-fluoro-3-methoxybenzonitrile] | 0.93 nM
7 | CO[C@H]1CC[C@]2(CC1)Cc1ccc(-c3cc(F)cc(F)c3)cc1[C@@]21N=C(C)C(N)=N1 [Example 88, (1r,1′R,4R)-6′-(3,5-difluorophenyl)-4-methoxy-5″-methyl-3′H-dispiro[cyclohexane-1,2′-indene-1′,2″-imidazol]-4″-amine] | 4.8 nM
8 | CO[C@H]1CC[C@]2(CC1)Cc1ccc(-c3ccc(F)cc3F)cc1[C@@]21N=C(C)C(N)=N1 [Example 103] | 14 nM
9 | CO[C@H]1CC[C@]2(CC1)Cc1ccc(-c3cccc(Cl)c3Cl)cc1[C@@]21N=C(C)C(N)=N1 [Example 104, (1r,1′R,4R)-6′-(2,3-dichlorophenyl)-4-methoxy-5″-methyl-3′H-dispiro[cyclohexane-1,2′-indene-1′,2″-imidazol]-4″-amine] | 34 nM
10 | CC1=NC2(N=C1N)c1cc(-c3cc(F)cc(F)c3)ccc1C[C@]21CC[C@@H](OC(F)F)CC1 (stereo partly shown) [Example 109] | 28 nM

Continued, values first:

Row | IC50 | SMILES
11 | 171 nM | CO[C@H]1CC[C@]2(CC1)Cc1ccc(C#N)cc1C21N=C(C)C(N)=N1 (stereo partly shown) [Example 79, (1r,4r)-4″-Amino-4-methoxy-5″-methyl-3′H-dispiro[cyclohexane-1,2′-indene-1′,2″-imidazole]-6′-carbonitrile]
12 | 1.7 nM | COc1cccc(-c2ccc3c(c2)[C@@]2(N=C(C)C(N)=N2)[C@]2(CC[C@H](OC)CC2)C3)c1F [Example 89, (1r,1′R,4R)-6′-(2-Fluoro-3-methoxyphenyl)-4-methoxy-5″-methyl-3′H-dispiro[cyclohexane-1,2′-indene-1′,2″-imidazol]-4′″-amine]
13 | 0.56 nM | CO[C@H]1CC[C@]2(CC1)Cc1ccc(-c3cc(Br)cc(C#N)c3)cc1C21N=C(C)C(N)=N1 (stereo partly shown) [Example 93, 3-[(1r,4r)-4″-Amino-4-methoxy-5″-methyl-3′H-dispiro[cyclohexane-1,2′-indene-1′,2″-imidazol]-6′-yl]-5-bromobenzonitrile]
14 | 3.6 nM | CCc1cc(C#N)cc(-c2ccc3c(c2)C2(N=C(C)C(N)=N2)[C@]2(CC[C@H](OC)CC2)C3)c1 (stereo partly shown) [Example 95, 3-[(1r,4r)-4″-Amino-4-methoxy-5″-methyl-3′H-dispiro[cyclohexane-1,2′-indene-1′,2″-imidazol]-6′-yl]-5-ethylbenzonitrile]
15 | 2 nM | CO[C@H]1CC[C@]2(CC1)Cc1ccc(C#CC3CCC3)cc1C21N=C(C)C(N)=N1 (stereo partly shown) [Example 112, (1r,4r)-6′-(Cyclobutylethynyl)-4-methoxy-5″-methyl-3′H-dispiro[cyclohexane-1,2′-indene-1′,2″-imidazol]-4″-amine]
16 | 1.6 nM | CO[C@H]1CC[C@]2(CC1)Cc1ccc(C#CC(C)C)cc1C21N=C(C)C(N)=N1 (stereo partly shown) [Example 113, (1r,4r)-4-Methoxy-5″-methyl-6′-(3-methylbut-1-yn-1-yl)-3′H-dispiro[cyclohexane-1,2′-indene-1′,2″-imidazol]-4″-amine]

same assay, conditions: Homo sapiens, compounds incubated 17 h, MSD detection

Row | SMILES | IC50
17 | CC1=NC2(N=C1N)c1cc(-c3cc(Cl)cc(C#N)c3)ccc1CC21CC1 (stereo not shown) [Example 78, 3-(4″-Amino-5″-methyl-3′H-dispiro[cyclopropane-1,2′-indene-1′,2″-imidazol]-6′-yl)-5-chlorobenzonitrile] | 56 nM
18 | CO[C@H]1CC[C@]2(CC1)Cc1ccc(-c3cc(C#N)cc(C(F)F)c3)cc1[C@@]21N=C(C)C(N)=N1 [Example 86, 3-[(1r,1′R,4R)-4″-Amino-4-methoxy-5-methyl-3′H-dispiro[cyclohexane-1,2′-indene-1′,2″-imidazol]-6′-yl]-5-(difluoromethyl)benzonitrile] | 1.1 nM
19 | COCc1cc(C#N)cc(-c2ccc3c(c2)C2(N=C(C)C(N)=N2)[C@]2(CC[C@H](OC)CC2)C3)c1 (stereo partly shown) [Example 96, 3-[(1r,4r)-4″-Amino-4-methoxy-5″-methyl-3′H-dispiro[cyclohexane-1,2′-indene-1′,2″-imidazol]-6′-yl]-5-(methoxymethyl)benzonitrile] | 3.5 nM
20 | COc1ccc(F)c(-c2ccc3c(c2)[C@@]2(N=C(C)C(N)=N2)[C@]2(CC[C@H](OC)CC2)C3)c1 [Example 98, (1r,1′R,4R)-6′-(2-Fluoro-5-methoxyphenyl)-4-methoxy-5″-methyl-3′H-dispiro[cyclohexane-1,2′-indene-1′,2″-imidazol]-4′″-amine] | 0.82 nM
21 | CO[C@H]1CC[C@]2(CC1)Cc1ccc(-c3cc(F)ccc3F)cc1[C@@]21N=C(C)C(N)=N1 [Example 99, (1r,1′R,4R)-6′-(2,5-Difluorophenyl)-4-methoxy-5′-methyl-3′H-dispiro[cyclohexane-1,2′-indene-1′,2″-imidazol]-4″-amine] | 5.7 nM
22 | CO[C@H]1CC[C@]2(CC1)Cc1ccc(-c3cc(Cl)c(F)c(C#N)c3)cc1[C@@]21N=C(C)C(N)=N1 [Example 100, 5-[(1r,1′R,4R)-4″-amino-4-methoxy-5″-methyl-3′H-dispiro[cyclohexane-1,2′-indene-1′,2″-imidazol]-6′-yl]-3-chloro-2-fluorobenzonitrile] | 0.59 nM
23 | CO[C@H]1CC[C@]2(CC1)Cc1ccc(-c3cccc(F)c3F)cc1[C@@]21N=C(C)C(N)=N1 [Example 101] | 6.3 nM
24 | CC1=NC2(N=C1N)c1cc(-c3cncc(C(F)(F)F)c3)ccc1C[C@]21CC[C@@H](OC(F)F)CC1 (stereo partly shown) [Example 107] | 7.9 nM
25 | CC1=NC2(N=C1N)c1cc(-c3cc(Cl)cc(C#N)c3)ccc1C[C@]21CC[C@@H](OC(F)F)CC1 (stereo partly shown) [Example 108, 3-[(1r,4r)-4″-Amino-4-(difluoromethoxy)-5″-methyl-3′H-dispiro[cyclohexane-1,2′-indene-1′,2″-imidazol]-6′-yl]-5-chlorobenzonitrile] | 1.8 nM
26 | COc1cc(-c2ccc3c(c2)C2(N=C(C)C(N)=N2)[C@]2(CC[C@H](OC(F)F)CC2)C3)cc(C#N)c1F (stereo partly shown) [Example 110, 5-[(1r,4r)-4″-Amino-4-(difluoromethoxy)-5″-methyl-3′H-dispiro[cyclohexane-1,2′-indene-1′,2″-imidazol]-6′-yl]-2-fluoro-3-methoxybenzonitrile] | 4 nM
27 | CC#Cc1cncc(-c2ccc3c(c2)C2(N=C(C)C(N)=N2)[C@]2(CC[C@](C)(OC)CC2)C3)c1 (stereo partly shown) [Example 111, (1r,4r)-4-Methoxy-4,5″-dimethyl-6′-[5-(prop-1-yn-1-yl)pyridin-3-yl]-3′H-dispiro[cyclohexane-1,2′-indene-1′,2″-imidazol]-4″-amine] | 31 nM

More lines, now with the values ahead:

Row | IC50 | SMILES
28 | 2.9 nM | CO[C@H]1CC[C@]2(CC1)Cc1ccc(-c3cncc(C)c3)cc1[C@@]21N=C(C)C(N)=N1 [Example 83, (1r,1′R,4R)-4-Methoxy-5″-methyl-6′-(5-methylpyridin-3-yl)-3′H-dispiro[cyclohexane-1,2′-indene-1′,2″-imidazol]-4″-amine]
29 | 14 nM | CO[C@H]1CC[C@]2(CC1)Cc1ccc(-c3ccccc3)cc1[C@@]21N=C(C)C(N)=N1 [Example 90, (1r,1′R,4R)-4-Methoxy-5″-methyl-6′-phenyl-3′H-dispiro[cyclohexane-1,2′-indene-1′,2″-imidazol]-4″-amine]
30 | 0.62 nM | COc1cc(C#N)cc(-c2ccc3c(c2)C2(N=C(C)C(N)=N2)[C@]2(CC[C@H](OC)CC2)C3)c1 (stereo partly shown) [Example 91, 3-[(1r,4r)-4″-Amino-4-methoxy-5″-methyl-3′H-dispiro[cyclohexane-1,2′-indene-1′,2″-imidazol]-6′-yl]-5-methoxybenzonitrile]
31 | 2.5 nM | CO[C@H]1CC[C@]2(CC1)Cc1ccc(-c3cc(C#N)ccc3F)cc1[C@@]21N=C(C)C(N)=N1 [Example 102, 3-[(1r,1′R,4R)-4″-Amino-4-methoxy-5″-methyl-3′H-dispiro[cyclohexane-1,2′-indene-1′,2″-imidazol]-6′-yl]-4-fluorobenzonitrile]
